Read-outs that look alike come from different tables or passages of the source.
Tested on: HIV-1 (IIIB)
Assay: Antiviral (HIV) assay in MT-4 cells
Assay type: cell-based
Conditions: HIV-1 IIIB in MT-4 cells, 5 days incubation, Cell Titer Glo, average of at least two independent experiments
How it was run: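 MT-4 cells, infected with HIV-1 IIIB (1:250 dilution of concentrated stock) or mock-infected, were exposed to 1:3 serially diluted compounds in RPMI with 10% FBS. After 5 days at 37° C., CellTiter-Glo luminescence was read. EC50 = concentration causing […], from sigmoidal dose-response fits.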

[1] = Human immunodeficiency virus 1, MT4, 120 h

EC50 [1] [µM] | Structure (SMILES) | EC50 (read-out: MT4 HIV EC50) [µM]
0.003 | C[C@H](Cn1cnc2c(N)ncnc21)OCP(=O)(NC(C)(C)C(=O)O[C@@H]1C[C@@H]2C[C@@H]2C1)NC(C)(C)C(=O)O[C@@H]1C[C@@H]2C[C@@H]2C1 [Example 60, Di((1R,3R,5S)-bicyclo[3.1.0]hexan-3-yl) 2,2′-((((((R)-1-(6-amino-9H-purin-9-yl)propan-2-yl)oxy)methyl)phosphoryl)bis(azanediyl))bis(2-methylpropanoate)] | –
0.028 | C[C@H](Cn1cnc2c(N)ncnc21)OCP(=O)(NC(C)(C)C(=O)OC1CCC2(CCCC2)CC1)NC(C)(C)C(=O)OC1CCC2(CCCC2)CC1 (stereo partly drawn) [Example 61, Di(spiro[4.5]decan-8-yl) 2,2′-(((((1-(6-amino-9H-purin-9-yl)propan-2-yl)oxy)methyl)phosphoryl)bis(azanediyl))(R)-bis(2-methylpropanoate)] | –
0.007 | C[C@H](Cn1cnc2c(N)ncnc21)OCP(=O)(NC(C)(C)C(=O)OCCC12CC(C1)C2)NC(C)(C)C(=O)OCCC12CC(C1)C2 [Example 62, Bis(2-(bicyclo[1.1.1]pentan-1-yl)ethyl) 2,2′-(((((1-(6-amino-9H-purin-9-yl)propan-2-yl)oxy)methyl)phosphoryl)bis(azanediyl))(R)-bis(2-methylpropanoate)] | –
0.007 | C[C@H](Cn1cnc2c(N)ncnc21)OCP(=O)(NC(C)(C)C(=O)OC1CCC2(CCC2)CC1)NC(C)(C)C(=O)OC1CCC2(CCC2)CC1 (stereo partly drawn) [Example 63, Di(spiro[3.5]nonan-7-yl) 2,2′-(((((1-(6-amino-9H-purin-9-yl)propan-2-yl)oxy)methyl)phosphoryl)bis(azanediyl))(R)-bis(2-methylpropanoate)] | –
> 0.5 | CCCCCCOC(=O)C(NP(=O)(CO[C@H](C)Cn1cnc2c(N)ncnc21)NC(C(=O)OCCCCCC)(C1CC1)C1CC1)(C1CC1)C1CC1 [Example 64, Dihexyl 2,2′-(((((1-(6-amino-9H-purin-9-yl)propan-2-yl)oxy)methyl)phosphoryl)bis(azanediyl))(R)-bis(2,2-dicyclopropylacetate)] | –
> 0.5 | CCCCCCOC(=O)C(CC)(CC)NP(=O)(CO[C@H](C)Cn1cnc2c(N)ncnc21)NC(CC)(CC)C(=O)OCCCCCC [Example 65, Dihexyl 2,2′-(((((1-(6-amino-9H-purin-9-yl)propan-2-yl)oxy)methyl)phosphoryl)bis(azanediyl))(R)-bis(2-ethylbutanoate)] | –
0.009 | CCCCCCCOC(=O)C(C)(C)NP(=O)(CO[C@H](C)Cn1cnc2c(N)ncnc21)NC(C)(C)C(=O)OCCCCCCC [Example 66, Diheptyl 2,2′-(((((1-(6-amino-9H-purin-9-yl)propan-2-yl)oxy)methyl)phosphoryl)bis(azanediyl))(R)-bis(2-methylpropanoate)] | –
0.009 | CC(C)CCCCOC(=O)C(C)(C)NP(=O)(CO[C@H](C)Cn1cnc2c(N)ncnc21)NC(C)(C)C(=O)OCCCCC(C)C [Example 68, Bis(5-methylhexyl) 2,2′-(((((1-(6-amino-9H-purin-9-yl)propan-2-yl)oxy)methyl)phosphoryl)bis(azanediyl))(R)-bis(2-methylpropanoate)] | –
0.024 | CCCC(CCC)COC(=O)C(C)(C)NP(=O)(CO[C@H](C)Cn1cnc2c(N)ncnc21)NC(C)(C)C(=O)OCC(CCC)CCC [Example 69, Bis(2-propylpentyl) 2,2′-(((((1-(6-amino-9H-purin-9-yl)propan-2-yl)oxy)methyl)phosphoryl)bis(azanediyl))(R)-bis(2-methylpropanoate)] | –
> 0.5 | CCC(CC)COC(=O)C1(NP(=O)(CO[C@H](C)Cn2cnc3c(N)ncnc32)NC2(C(=O)OCC(CC)CC)CC2)CC1 [Example 70, Bis(2-ethylbutyl) 1,1′-(((((1-(6-amino-9H-purin-9-yl)propan-2-yl)oxy)methyl)phosphoryl)bis(azanediyl))(R)-bis(cyclopropane-1-carboxylate)] | –
– | CCC(CC)COC(=O)C(C)(C)N[P@](=O)(CO[C@H](C)Cn1cnc2c(N)ncnc21)NC1(C(=O)OCC(CC)CC)CC1 [Example 71, 2-Ethylbutyl 1-(((R)-((((R)-1-(6-amino-9H-purin-9-yl)propan-2-yl)oxy)methyl)((1-(2-ethylbutoxy)-2-methyl-1-oxopropan-2-l)amino)phosphoryl)amino)cyclopropane-1-carboxylate] | 0.233
> 0.5 | CCCCCCOC(=O)C(C)(C)NP(=O)(CO[C@H](C)Cn1cnc2c(N)ncnc21)NC(C)(C)C(=O)OCC12CC(C1)C2 (stereo partly drawn) [Example 77, Bicyclo[1.1.1]pentan-1-ylmethyl 2-((((((R)-1-(6-amino-9H-purin-9-yl)propan-2-yl)oxy)methyl)((1-(hexyloxy)-2-methyl-1-oxopropan-2-yl)amino)phosphoryl)amino)-2-methylpropanoate] | –
> 0.5 | CCCCCCOC(=O)C(C)(C)NP(=O)(CO[C@H](C)Cn1cnc2c(N)ncnc21)NC(C)(C)C(=O)OCC1(F)CC1 (stereo partly drawn) [Example 78, (1-Fluorocyclopropyl)methyl 2-((((((R)-1-(6-amino-9H-purin-9-yl)propan-2-yl)oxy)methyl)((1-(hexyloxy)-2-methyl-1-oxopropan-2-yl)amino)phosphoryl)amino)-2-methylpropanoate] | –
0.271 | CCCCCCOC(=O)C(C)(C)NP(=O)(CO[C@H](C)Cn1cnc2c(N)ncnc21)NC(C)(C)C(=O)OCC(C)(C)OC (stereo partly drawn) [Example 79, Hexyl 2-((((((R)-1-(6-amino-9H-purin-9-yl)propan-2-yl)oxy)methyl)((1-(2-methoxy-2-methylpropoxy)-2-methyl-1-oxopropan-2-yl)amino)phosphoryl)amino)-2-methylpropanoate] | –
> 0.5 | CCCCCCOC(=O)C(C)(C)NP(=O)(CO[C@H](C)Cn1cnc2c(N)ncnc21)NC(C)(C)C(=O)OCC12CCC(CC1)C2 (stereo partly drawn) [Example 80, Bicyclo[2.2.1]heptan-1-ylmethyl 2-((((((R)-1-(6-amino-9H-purin-9-yl)propan-2-yl)oxy)methyl)((1-(hexyloxy)-2-methyl-1-oxopropan-2-yl)amino)phosphoryl)amino)-2-methylpropanoate] | –
> 0.5 | CCCCCCOC(=O)C(C)(C)NP(=O)(CO[C@H](C)Cn1cnc2c(N)ncnc21)NC(C)(C)C(=O)OC(C)C1CC1 (stereo partly drawn) [Example 81, 1-Cyclopropylethyl 2-((((((R)-1-(6-amino-9H-purin-9-yl)propan-2-yl)oxy)methyl)((1-(hexyloxy)-2-methyl-1-oxopropan-2-yl)amino)phosphoryl)amino)-2-methylpropanoate] | –
0.345 | CCCCCCOC(=O)C(C)(C)NP(=O)(CO[C@H](C)Cn1cnc2c(NCc3oc(=O)oc3C)ncnc21)NC(C)(C)C(=O)OCCCCCC [Example 82, Dihexyl 2,2′-(((((1-(6-(((5-methyl-2-oxo-1,3-dioxol-4-yl)methyl)amino)-9H-purin-9-yl)propan-2-yl)oxy)methyl)phosphoryl)bis(azanediyl))(R)-bis(2-methylpropanoate)] | –
0.006 | CCCCCCOC(=O)C(C)(C)NP(=O)(CO[C@H](C)Cn1cnc2c(=N)n(Cc3oc(=O)oc3C)cnc21)NC(C)(C)C(=O)OCCCCCC [Example 83, Dihexyl 2,2′-(((((1-(6-imino-1-((5-methyl-2-oxo-1,3-dioxol-4-yl)methyl)-1,6-dihydro-9H-purin-9-yl)propan-2-yl)oxy)methyl)phosphoryl)bis(azanediyl))(R)-bis(2-methylpropanoate)] | –
0.229 | CCCCCCOC(=O)C(C)(C)NP(=O)(CO[C@H](C)Cn1cnc2/c(=N\Cc3oc(=O)oc3C)n(Cc3oc(=O)oc3C)cnc21)NC(C)(C)C(=O)OCCCCCC [Example 84, Dihexyl 2,2′-(((((1-(1-((5-methyl-2-oxo-1,3-dioxol-4-yl)methyl)-6-(((5-methyl-2-oxo-1,3-dioxol-4-yl)methyl)imino)-1,6-dihydro-9H-purin-9-yl)propan-2-yl)oxy)methyl)phosphoryl)bis(azanediyl))(R,E)-bis(2-methylpropanoate)] | –
0.005 | C[C@H](Cn1cnc2c(N)ncnc21)OCP(=O)(NC(C)(C)C(=O)O[C@H]1C[C@@H](c2ccccc2)C1)NC(C)(C)C(=O)O[C@H]1C[C@@H](c2ccccc2)C1 [Example 85, Bis((1s,3S)-3-phenylcyclobutyl) 2,2′-((((((R)-1-(6-amino-9H-purin-9-yl)propan-2-yl)oxy)methyl)phosphoryl)bis(azanediyl))bis(2-methylpropanoate)] | –
0.005 | C[C@H](Cn1cnc2c(N)ncnc21)OCP(=O)(NC(C)(C)C(=O)OC1CC2(CCCCC2)C1)NC(C)(C)C(=O)OC1CC2(CCCCC2)C1 (stereo partly drawn) [Example 86, Di(spiro[3.5]nonan-2-yl) 2,2′-(((((1-(6-amino-9H-purin-9-yl)propan-2-yl)oxy)methyl)phosphoryl)bis(azanediyl))(R)-bis(2-methylpropanoate)] | –
0.006 | C[C@H](Cn1cnc2c(N)ncnc21)OCP(=O)(NC(C)(C)C(=O)OCC12CCC(CC1)C2)NC(C)(C)C(=O)OCC12CCC(CC1)C2 [Example 87, Bis(bicyclo[2.2.1]heptan-1-ylmethyl) 2,2′-(((((1-(6-amino-9H-purin-9-yl)propan-2-yl)oxy)methyl)phosphoryl)bis(azanediyl))(R)-bis(2-methylpropanoate)] | –
0.003 | C[C@H](Cn1cnc2c(N)ncnc21)OCP(=O)(NC(C)(C)C(=O)OCC1CCC(F)(F)CC1)NC(C)(C)C(=O)OCC1CCC(F)(F)CC1 [Example 88, Bis((4,4-difluorocyclohexyl)methyl) 2,2′-(((((1-(6-amino-9H-purin-9-yl)propan-2-yl)oxy)methyl)phosphoryl)bis(azanediyl))(R)-bis(2-methylpropanoate)] | –

Structure (SMILES) | EC50 [1] [µM] | EC50 (read-out: MT4 HIV EC50) [µM]
CCC(CC)COC(=O)C(C)(C)N[P@@](=O)(CO[C@H](C)Cn1cnc2c(N)ncnc21)NC1(C(=O)OCC(CC)CC)CC1 [Example 72, 2-Ethylbutyl 1-(((S)-((((R)-1-(6-amino-9H-purin-9-yl)propan-2-yl)oxy)methyl)((1-(2-ethylbutoxy)-2-methyl-1-oxopropan-2-yl)amino)phosphoryl)amino)cyclopropane-1-carboxylate] | 0.016 | –

From US12110305B2, “Prodrugs of phosphonamide nucleotide analogues and their pharmaceutical use” (priority 2020, dated 2024)
